{
  "source": "paper PMC3293351",
  "about": "“Pharmacokinetics and Excretion Studies on CDRI-85/92, an Antiulcer Proton Pump Inhibitor” (Scientia Pharmaceutica, 2011)",
  "key": {"[1]": {"settings": "cited from earlier work"}, "Aqueous solubility": {"experiment": "Aqueous solubility", "format": "physicochemical"}, "[2]": {"experiment": "Urinary, fecal and biliary excretion after 20 mg/kg oral and intravenous dose", "format": "in vivo, Sprague Dawley rats", "settings": "for k el: Sprague Dawley, rat; for Excreted in urine, % of the dose: intravenously treated rats, bile duct cannulated as well as noncannulated", "procedure": "Urinary, fecal and biliary excretion of CDRI-85/92 was studied in rats (n=3 per group) after a single 20 mg/kg oral and intravenous dose. Following treatment with CDRI-85/92, urine and feces samples were collected during 24 h with 12 h intervals. Urine was measured and kept in parafilm sealed tubes at −60°C till analyses. Feces samples were dried at 37°C, weighed, ground to fine powder using mortar-pestle and stored in desiccator until analyses. Untreated rats were housed in metabolic cages with food and water ad libitum and their feces and urine collected to serve as blank samples for method development and validation.\nFor biliary excretion study, bile duct of the rats was surgically cannulated under light ether anesthesia. Rats were dosed with the solution formulation of CDRI-85/92 at 20 mg/kg orally or intravenously and placed in Bollman cages. Bile samples were collected in glass tubes at 0–12 and 12–24 h post dose. The volume of the samples were recorded and stored at −60°C until analyses.\nThe HPLC method described above was validated for estimation of CDRI-85/92 in urine and bile by assaying the spiked control samples in these biomatrics at three concentration levels (20, 50 and 100 ng/ml of the drug). To have a robust method, inter- and intra-day validation was also conducted (Table 2).\nFor the preparation of the spiked control feces samples, weighed (25 mg) quantities of drug-free powdered feces were transferred to different glass tubes, fortified with appropriated volume of working dilutions of CDRI-85/92 prepared in methanol, mixed by gentle tapping and allowed to stand at room temperature for drying. The blank, spiked or test samples were moistened with 0.2 ml of KH2PO4 buffer (20 mM, pH 3.0) followed by addition of 1.0 ml of acetonitrile for protein precipitation. The tubes were sealed with parafilm and allowed to stand at room temperature with frequent vortexing. Supernatant were processed as described above for serum samples. For each analytical run, a calibration curve was constructed using peak response against the concentration in calibration standards prepared in same biomatrix.\nThe amount, cumulative amount and % of the administered dose excreted via urine, bile and feces were calculated."}, "[3]": {"set-up": "method as in PMID 12711165", "settings": "alike at acidic and basic pHs; cited from earlier work"}, "[4]": {"experiment": "Partition coefficient (log P), 1-octanol/phosphate buffer", "format": "physicochemical", "settings": "1-octanol/20 mM phosphate buffer; octanol partition, 20 mM phosphate buffer pH 7.4, 25°C", "procedure": "Determination of log P was carried out according to the method of Said et al. (1996). 1-Octanol and 20 mM phosphate buffer (pH, 7.4) were mutually saturated for 6 h on magnetic stirrer and separated. A solution of the compound (1 mg/ml) was prepared in […]. Buffer (2 ml) and octanol containing CDRI-85/92 were placed in seven glass tubes and screw capped. These tubes were tumble-mixed for 2 h at 25°C at about 100 inversions/min. The organic and aqueous phases were separated by centrifugation at 2500 rev/min for 20 min. The concentration of the compound in aqueous and organic phase was determined by HPLC after a suitable dilution in mobile phase. The log P was calculated from the following equation:\nLog P=logCoctanol/Cbuffer"}, "[5]": {"system": "glutathione-S-transferases", "set-up": "method as in PMID 15283303", "settings": "formation of trans-isoform; cited from earlier work"}, "gastric proton pump": {"system": "gastric proton pump", "settings": "cited from earlier work"}, "[6]": {"system": "proton pumps of the kidney and bone", "set-up": "method as in PMID 17045703", "settings": "cited from earlier work"}, "[7]": {"set-up": "method as in PMID 17045703", "settings": "cited from earlier work"}, "[8]": {"experiment": "log P from potentiometric titration", "format": "physicochemical", "settings": "aqueous solution titrated with 0.1 M NaOH", "procedure": "where Coctanol and Cbuffer are the concentrations of the compound in octanol and buffer, respectively. Further, log P values {[…]} were also calculated after conducting potentiometric titration. It was carried out manually using a pH electrode and a variable volume pipette. A solution of the compound (1 mg/ml) was prepared in water and it was titrated with a 0.1 M NaOH solution, pH was measured simultaneously. The equivalence point (pKa- partition coefficient) was estimated from the inflection point in the titration curve from the plot between pH and volume of mL of NaOH solution."}, "[9]": {"settings": "IV 20 mg/kg, bile duct cannulated rats"}, "[10]": {"settings": "IV 20 mg/kg, non-cannulated rats"}, "[11]": {"settings": "IV 20 mg/kg, non-cannulated rats, up to 24 h, 20 mg/kg"}, "[12]": {"settings": "oral 20 mg/kg, bile duct cannulated rats"}, "[13]": {"settings": "oral 20 mg/kg, bile duct cannulated rats, up to 24 h, 20 mg/kg"}, "[14]": {"settings": "oral 20 mg/kg, non-cannulated rats"}, "[15]": {"settings": "oral 20 mg/kg, non-cannulated rats, up to 24 h, 20 mg/kg"}},
  "note": "“And” between values parts separate entries of the source, which are not always exact repeats. Equal entries are not always repeated. Where two headings read alike, the source gives them in different places.",
  "data": [
    {"compound": "O=C1NC(C(=O)O)/C(=C\\Cc2ccccc2)O1", "note": "(stereo not shown) [CDRI-85/92, (5E)-2-oxo-5-(2-phenylethylidene)-1,3-oxazolidine-4-carboxylic acid]", "values": [
      {"measurement": "aqueous solubility", "setting": "[1]", "value": "> 500", "unit": "µg/mL"},
      {"measurement": "Solubility in formulation", "setting": "Aqueous solubility; 10 and 20 mg/ml in triple distilled water", "value": "completely soluble"},
      {"measurement": "Solubility in water", "setting": "Aqueous solubility; water", "value": "freely soluble in water"},
      {"measurement": "% of dose recovered, urine 0–12 h", "setting": "[2]; [9]", "value": 16.8, "unit": "%"},
      {"measurement": "fe (fraction excreted), urine", "setting": "[2]; [9]", "value": 0.90},
      {"measurement": "% of dose recovered, urine total", "setting": "[2]; IV 20 mg/kg, bile duct cannulated rats, up to 24 h, 20 mg/kg", "value": "16.8 ± 2.7% and 16.8%"},
      {"measurement": "% of dose recovered, feces 0–12 h", "setting": "[2]; [10]", "value": 0.05, "unit": "%"},
      {"measurement": "% of dose recovered, feces 12–24 h", "setting": "[2]; [10]", "value": 0.02, "unit": "%"},
      {"measurement": "% of dose recovered, urine 0–12 h", "setting": "[2]; [10]", "value": 15.7, "unit": "%"},
      {"measurement": "fe (fraction excreted), feces", "setting": "[2]; [10]", "value": 0.0008},
      {"measurement": "fe (fraction excreted), urine", "setting": "[2]; [10]", "value": 0.9},
      {"measurement": "% of dose recovered, feces total", "setting": "[2]; [11]", "value": "0.08 ± 0.08% and 0.08%"},
      {"measurement": "% of dose recovered, urine total", "setting": "[2]; [11]", "value": "15.7 ± 3.3% and 15.7%"},
      {"measurement": "k el", "setting": "[2]; bile, po, 20 mg/kg, oral 20 mg/kg, bile duct cannulated rats, read-out: Ke (excretion rate constant), bile (converted)", "value": "2.78e-05", "unit": "s⁻¹"},
      {"measurement": "k el", "setting": "[2]; bile, po, 20 mg/kg, oral 20 mg/kg, bile duct cannulated rats, read-out: Kel (elimination rate constant), bile (converted)", "value": "1.33e-05", "unit": "s⁻¹"},
      {"measurement": "k el", "setting": "[2]; feces, iv, 20 mg/kg, IV 20 mg/kg, non-cannulated rats, read-out: Ke (excretion rate constant), feces (converted)", "value": "4.17e-05", "unit": "s⁻¹"},
      {"measurement": "k el", "setting": "[2]; feces, iv, 20 mg/kg, IV 20 mg/kg, non-cannulated rats, read-out: Kel (elimination rate constant), feces (converted)", "value": "8.33e-06", "unit": "s⁻¹"},
      {"measurement": "k el", "setting": "[2]; feces, po, 20 mg/kg, oral 20 mg/kg, non-cannulated rats, read-out: Ke (excretion rate constant), feces (converted)", "value": "1.94e-05", "unit": "s⁻¹"},
      {"measurement": "k el", "setting": "[2]; feces, po, 20 mg/kg, oral 20 mg/kg, non-cannulated rats, read-out: Kel (elimination rate constant), feces (converted)", "value": "1.67e-05", "unit": "s⁻¹"},
      {"measurement": "k el", "setting": "[2]; urine, iv, 20 mg/kg, IV 20 mg/kg, bile duct cannulated rats, read-out: Ke (excretion rate constant), urine (converted)", "value": "1.11e-05", "unit": "s⁻¹"},
      {"measurement": "k el", "setting": "[2]; urine, iv, 20 mg/kg, IV 20 mg/kg, bile duct cannulated rats, read-out: Kel (elimination rate constant), urine (converted)", "value": "1.39e-05", "unit": "s⁻¹"},
      {"measurement": "k el", "setting": "[2]; urine, iv, 20 mg/kg, IV 20 mg/kg, non-cannulated rats, read-out: Ke (excretion rate constant), urine (converted)", "value": "2.5e-05", "unit": "s⁻¹"},
      {"measurement": "k el", "setting": "[2]; urine, iv, 20 mg/kg, IV 20 mg/kg, non-cannulated rats, read-out: Kel (elimination rate constant), urine (converted)", "value": "2.78e-05", "unit": "s⁻¹"},
      {"measurement": "k el", "setting": "[2]; urine, po, 20 mg/kg, oral 20 mg/kg, bile duct cannulated rats, read-out: Ke (excretion rate constant), urine (converted)", "value": "1.67e-05", "unit": "s⁻¹"},
      {"measurement": "k el", "setting": "[2]; urine, po, 20 mg/kg, oral 20 mg/kg, bile duct cannulated rats, read-out: Kel (elimination rate constant), urine (converted)", "value": "1.94e-05", "unit": "s⁻¹"},
      {"measurement": "k el", "setting": "[2]; urine, po, 20 mg/kg, oral 20 mg/kg, non-cannulated rats, read-out: Ke (excretion rate constant), urine (converted)", "value": "1.11e-05", "unit": "s⁻¹"},
      {"measurement": "k el", "setting": "[2]; urine, po, 20 mg/kg, oral 20 mg/kg, non-cannulated rats, read-out: Kel (elimination rate constant), urine (converted)", "value": "1.94e-05", "unit": "s⁻¹"},
      {"measurement": "Excreted in urine, % of the dose", "setting": "[2]", "value": 15, "unit": "%"},
      {"measurement": "Excreted in urine, % of the dose", "setting": "[2]; listed as CDRI 85/92", "value": "~ 15%"},
      {"measurement": "% of dose recovered, bile 0–12 h", "setting": "[2]; [12]", "value": 0.3, "unit": "%"},
      {"measurement": "% of dose recovered, bile 12–24 h", "setting": "[2]; [12]", "value": 0.08, "unit": "%"},
      {"measurement": "% of dose recovered, urine 0–12 h", "setting": "[2]; [12]", "value": 1.5, "unit": "%"},
      {"measurement": "% of dose recovered, urine 12–24 h", "setting": "[2]; [12]", "value": 0.2, "unit": "%"},
      {"measurement": "fe (fraction excreted), bile", "setting": "[2]; [12]", "value": 0.0037},
      {"measurement": "fe (fraction excreted), urine", "setting": "[2]; [12]", "value": 0.83},
      {"measurement": "% of dose recovered, bile total", "setting": "[2]; [13]", "value": "0.37 ± 0.12% and 0.37%"},
      {"measurement": "% of dose recovered, urine total", "setting": "[2]; [13]", "value": "1.7 ± 0.8% and 1.7%"},
      {"measurement": "% of dose recovered, feces 0–12 h", "setting": "[2]; [14]", "value": 1.0, "unit": "%"},
      {"measurement": "% of dose recovered, feces 12–24 h", "setting": "[2]; [14]", "value": 0.2, "unit": "%"},
      {"measurement": "% of dose recovered, urine 0–12 h", "setting": "[2]; [14]", "value": 3.7, "unit": "%"},
      {"measurement": "% of dose recovered, urine 12–24 h", "setting": "[2]; [14]", "value": 0.5, "unit": "%"},
      {"measurement": "fe (fraction excreted), feces", "setting": "[2]; [14]", "value": 0.012},
      {"measurement": "% of dose recovered, feces total", "setting": "[2]; [15]", "value": "1.2 ± 0.6% and 1.2%"},
      {"measurement": "% of dose recovered, urine total", "setting": "[2]; [15]", "value": "4.2 ± 1.1% and 4.2%"},
      {"measurement": "Levels of the compound in bile and feces", "setting": "[2]; rats, 20 mg/kg", "value": "insignificant levels"},
      {"measurement": "Ka (absorption rate constant)", "setting": "[3]", "value": 0.12, "unit": "h⁻¹"},
      {"measurement": "logP", "setting": "[4]", "value": "0.53 ± 0.11"},
      {"measurement": "Metabolism by glutathione-S-transferases", "setting": "[5]", "value": "very slow metabolism"},
      {"measurement": "Inhibition of the gastric proton pump", "setting": "gastric proton pump", "value": "selective and competitive inhibition"},
      {"measurement": "Inhibition of proton pumps of the kidney and bone", "setting": "[6]", "value": "not inhibiting"},
      {"measurement": "cytoprotective activity", "setting": "[7]", "value": "good cytoprotective activity"},
      {"measurement": "logP", "setting": "[8]", "value": "0.55 ± 0.18"}
    ]}
  ]
}
